In patent publication US12351648B2, “Methods of inhibiting MASP-2 for the treatment and/or prevention of coronavirus-induced acute respiratory distress syndrome” (priority 2020, dated 2025):
Non-standard residues stand in square brackets, D forms with d. Residues, ends and D or L forms follow the SMILES beside them. *: point of attachment. dChg = N[C@@H](C(=O)O)C1CCCCC1; Agmatine = N=C(N)NCCCCN*; Aze = O=C(O)[C@@H]1CCN1

Tested on: lectin pathway
Test: Lectin pathway activation assay in 1% human serum (C3 deposition on mannan, ELISA)
Type: biochemical
Conditions: read-out: Lectin Ki (Lectin Pathway Inhibition, IC50)
For N=C(N)c1ccc(CNC(=O)Cn2c(=O)n(Cc3ccccc3)c(=O)c3ccc(C(=O)NC4CCCCC4)cc32)cc1 [Compound 2021], the IC50 was 5000 to 50000 nM.

Same assay, conditions: read-out: Lectin Pathway IC50
Compound C[C@H](NC(=O)C1CC(c2ccccc2)CCN1)C(=O)NCc1ccc(N)nc1 (stereo partly drawn) [Compound 1025] has an IC50 of 500 to 5000 nM. In the case of C[C@H](NC(=O)[C@H](N)CCc1ccccc1)C(=O)NCc1ccc2nc(N)[nH]c2c1 [Compound 1040], the IC50 is reported as 500 to 5000 nM. For C[C@H](NC(=O)C1CC(c2ccccc2)CCN1)C(=O)NCc1ccc(C(=N)N)cc1 (stereo partly drawn) [Compound 1065], the IC50 was < 50 nM. Cc1nc(N)ccc1CNC(=O)[C@H](C)NC(=O)[C@H]1C[C@H](c2cccc(-c3ccccc3)c2)CN1 [Compound 1360] gave an IC50 of 50 to 500 nM.

Target: human α-thrombin (Homo sapiens (Human), UniProt P00734)
Test: Enzymatic assay for thrombin (Boc-VPR-AMC)
Type: biochemical
Conditions: Thrombin Ki (μM)
With CCCCOC(=O)NC(=N)c1ccc(CNC(=O)[C@H](C)NC(=O)[C@H]2C[C@H](c3ccccc3)CN2)cc1 [Compound 1260] the Ki was > 25 µM. For Cc1nc(N)ccc1CNC(=O)[C@@H](C)NC(=O)[C@H]1C[C@H](c2cccc(-c3ccccc3)c2)CN1 [Compound 1359], the Ki was > 25 µM. With Cc1nc(N)ccc1CNC(=O)[C@H](C)NC(=O)[C@H]1C[C@H](c2cccc(-c3ccccc3)c2)CN1 [Compound 1360] the Ki was > 25 µM.

Same assay, conditions: Thrombin Ki, human α-thrombin, Boc-VPR-AMC
With C[C@H](NC(=O)C1CC(c2ccccc2)CCN1)C(=O)NCc1ccc(N)nc1 (stereo partly drawn) [Compound 1025] the Ki was > 25 µM. For C[C@H](NC(=O)[C@H](N)CCc1ccccc1)C(=O)NCc1ccc2nc(N)[nH]c2c1 [Compound 1040], the Ki was > 25 µM.

Same assay, conditions: human α-thrombin, Boc-VPR-AMC; read-out: Thrombin Ki
For C[C@H](NC(=O)[C@H](N)CCc1ccc(F)cc1)C(=O)NCc1ccc(C(=N)N)cc1 [Compound 1047], the Ki was < 2.5 µM. In the case of C[C@H](NC(=O)[C@@H](CCc1ccccc1)NCc1ccc(F)cc1)C(=O)NCc1ccc(C(=N)N)cc1 [Compound 1141], the Ki is reported as < 0.5 µM. In the case of COC(=O)CCCCCN[C@H](CCc1ccccc1)C(=O)N[C@@H](C)C(=O)NCc1ccc(C(=N)N)cc1 [Compound 1142], the Ki is reported as < 0.5 µM. For C[C@H](NC(=O)[C@@H](CCc1ccccc1)NCc1cc2ccccc2[nH]1)C(=O)NCc1ccc(C(=N)N)cc1 [Compound 1143], the Ki was < 0.5 µM. In the case of CCOC(=O)COc1ccc(Cl)cc1CNC(=O)[C@H](C)NC(=O)[C@H](N)CCc1ccccc1 [Compound 1229], the Ki is reported as < 10 µM.

Target: MASP-2 (CCP1-CCP2-SP) (Homo sapiens (Human), UniProt O00187)
Sequence (O00187 287-686): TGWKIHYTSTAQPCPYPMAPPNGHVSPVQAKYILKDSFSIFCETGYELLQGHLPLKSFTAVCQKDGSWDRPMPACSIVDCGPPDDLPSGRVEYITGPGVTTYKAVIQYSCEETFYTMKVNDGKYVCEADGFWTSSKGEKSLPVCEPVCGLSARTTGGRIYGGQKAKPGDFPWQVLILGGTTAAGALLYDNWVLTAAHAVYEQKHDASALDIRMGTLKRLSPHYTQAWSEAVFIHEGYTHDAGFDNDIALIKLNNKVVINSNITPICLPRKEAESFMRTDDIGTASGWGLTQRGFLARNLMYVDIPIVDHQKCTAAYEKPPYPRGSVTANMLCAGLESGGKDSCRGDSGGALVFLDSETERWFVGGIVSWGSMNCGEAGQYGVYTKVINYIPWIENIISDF
Test: Enzymatic assay for MASP-2 (fluorogenic substrate)
Type: biochemical
Conditions: MASP-2 Ki (μM)
For CCCCOC(=O)NC(=N)c1ccc(CNC(=O)[C@H](C)NC(=O)[C@H]2C[C@H](c3ccccc3)CN2)cc1 [Compound 1260], the Ki was 2.5 to 10 µM.

Same assay, conditions: MASP-2 Ki (μM), −Zn
In the case of N=C(N)c1ccc2[nH]c(Cc3nc4ccccc4[nH]3)nc2c1 [Compound 2015], the Ki is reported as < 10 µM.

Same assay, conditions: MASP-2 inhibition versus thrombin
For N=C(N)NCCCCNC(=O)[C@@H]1CCN1C(=O)[C@H](N)C1CCCCC1 [Compound 1006] (H-[dChg]-[Aze]-Agmatine), the “MASP-2 vs. thrombin selectivity” value was “— (less than 1.0-fold)”. With N=C(N)c1ccc(CNC(=O)[C@@H]2CCCN2C(=O)[C@H](N)C2CCCCC2)cc1 [Compound 1027] the “MASP-2 vs. thrombin selectivity” value was “— (less than 1.0-fold)”. For C[C@H](NC(=O)[C@H](N)CCc1ccccc1)C(=O)NCc1ccc2nc(N)[nH]c2c1 [Compound 1040], the “MASP-2 vs. thrombin selectivity” value was “**** (>100-fold)”. In the case of C[C@H](NC(=O)[C@@H](CCc1ccccc1)NC1CCCCC1)C(=O)NCc1ccc(C(=N)N)cc1 [Compound 1130], the “MASP-2 vs. thrombin selectivity” value is reported as “— (less than 1.0-fold)”. For C[C@H](NC(=O)[C@@H](CCc1ccccc1)NCc1ccc(O)cc1)C(=O)NCc1ccc(C(=N)N)cc1 [Compound 1140], the “MASP-2 vs. thrombin selectivity” value was “— (less than 1.0-fold)”. In the case of C[C@H](NC(=O)[C@@H](CCc1ccccc1)NCc1ccc(F)cc1)C(=O)NCc1ccc(C(=N)N)cc1 [Compound 1141], the “MASP-2 vs. thrombin selectivity” value is reported as “— (less than 1.0-fold)”. For COC(=O)CCCCCN[C@H](CCc1ccccc1)C(=O)N[C@@H](C)C(=O)NCc1ccc(C(=N)N)cc1 [Compound 1142], the “MASP-2 vs. thrombin selectivity” value was “* (1.0 to 5.0-fold)”. With C[C@H](NC(=O)[C@@H](CCc1ccccc1)NCc1cc2ccccc2[nH]1)C(=O)NCc1ccc(C(=N)N)cc1 [Compound 1143] the “MASP-2 vs. thrombin selectivity” value was “— (less than 1.0-fold)”. In the case of C[C@H](NC(=O)[C@H](N)CCc1ccccc1)C(=O)NCc1ccc(C(=N)N)cc1 [Compound 1218], the “MASP-2 vs. thrombin selectivity” value is reported as “— (less than 1.0-fold)”. In the case of CC[C@H](NC(=O)[C@H](N)CCc1ccccc1)C(=O)NCc1ccc(C(=N)N)cc1 [Compound 1289], the “MASP-2 vs. thrombin selectivity” value is reported as “— (<1.0-fold)”. For C[C@H](NC(=O)[C@H](N)CCc1ccccc1)C(=O)NCc1cc(Cl)ccc1-n1cnnn1 [Compound 1325], the “MASP-2 vs. thrombin selectivity” value was “— (<1.0-fold)”. For C[C@H](NC(=O)[C@H]1C[C@H](Cc2ccccc2)CN1)C(=O)NCc1cnc2[nH]cc(Cl)c2c1 [Compound 1334], the “MASP-2 vs. thrombin selectivity” value was “— (<1.0-fold)”. For Cc1nc(N)ccc1CNC(=O)[C@H](C)NC(=O)[C@H]1C[C@H](Cc2ccc3ccccc3c2)CN1 [Compound 1338], the “MASP-2 vs. thrombin selectivity” value was “*** (≥25 to <100-fold)”. In the case of C[C@H](NC(=O)[C@H]1C[C@H](Cc2cccc3ccccc23)CN1)C(=O)NCc1cc(Cl)ccc1-n1cnnn1 [Compound 1414], the “MASP-2 vs. thrombin selectivity” value is reported as “— (<1.0-fold)”.

Same assay, conditions: read-out: MASP-2 Ki
With C[C@H](NC(=O)[C@H](N)CCc1ccccc1)C(=O)NCc1ccc2nc(N)[nH]c2c1 [Compound 1040] the Ki was < 0.5 µM. For C[C@H](NC(=O)[C@@H](CCc1ccccc1)NCc1ccc(F)cc1)C(=O)NCc1ccc(C(=N)N)cc1 [Compound 1141], the Ki was < 0.5 µM. In the case of COC(=O)CCCCCN[C@H](CCc1ccccc1)C(=O)N[C@@H](C)C(=O)NCc1ccc(C(=N)N)cc1 [Compound 1142], the Ki is reported as < 0.5 µM. For C[C@H](NC(=O)[C@@H](CCc1ccccc1)NCc1cc2ccccc2[nH]1)C(=O)NCc1ccc(C(=N)N)cc1 [Compound 1143], the Ki was < 0.5 µM.

Target: T1, mMASP-2 (Mus musculus (Mouse), UniProt Q91WP0)
T1 sequence (Q91WP0 20-685): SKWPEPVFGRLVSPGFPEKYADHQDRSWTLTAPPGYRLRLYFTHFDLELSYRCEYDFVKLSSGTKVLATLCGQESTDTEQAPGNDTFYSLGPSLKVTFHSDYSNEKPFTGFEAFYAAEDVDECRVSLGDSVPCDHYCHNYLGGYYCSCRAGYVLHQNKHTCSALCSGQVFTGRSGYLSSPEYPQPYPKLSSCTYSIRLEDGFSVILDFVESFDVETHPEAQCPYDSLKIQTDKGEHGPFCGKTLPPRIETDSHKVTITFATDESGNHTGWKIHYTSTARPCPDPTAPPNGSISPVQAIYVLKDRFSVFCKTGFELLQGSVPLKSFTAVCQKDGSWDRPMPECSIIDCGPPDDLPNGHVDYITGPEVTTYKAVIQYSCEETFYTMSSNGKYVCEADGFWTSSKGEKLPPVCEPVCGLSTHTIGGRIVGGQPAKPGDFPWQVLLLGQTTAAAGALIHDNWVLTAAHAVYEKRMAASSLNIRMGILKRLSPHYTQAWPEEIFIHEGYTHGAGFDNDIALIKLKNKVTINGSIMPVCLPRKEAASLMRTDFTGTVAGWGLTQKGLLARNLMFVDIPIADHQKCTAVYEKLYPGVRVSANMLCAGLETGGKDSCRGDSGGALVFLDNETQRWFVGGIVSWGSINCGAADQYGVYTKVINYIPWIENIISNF
Test: Enzymatic assay for mMASP-2 (Ki)
Type: biochemical
Conditions: not given
For C[C@H](NC(=O)[C@H](N)CCc1ccccc1)C(=O)NCc1ccc2nc(N)[nH]c2c1 [Compound 1040], the Ki was < 500 nM. With C[C@H](NC(=O)C1CC(c2ccccc2)CCN1)C(=O)NCc1ccc(C(=N)N)cc1 (stereo partly drawn) [Compound 1065] the Ki was < 500 nM. For C[C@H](NC(=O)[C@@H](CCc1ccccc1)NCc1cc2ccccc2[nH]1)C(=O)NCc1ccc(C(=N)N)cc1 [Compound 1143], the Ki was < 500 nM. For C[C@H](NC(=O)[C@H]1CCc2ccccc2N1)C(=O)NCc1ccc(C(=N)N)cc1 [Compound 1215], the Ki was < 25000 nM.

Tested on: COVID-19 patients
Test: not given
Conditions: invasive mechanical ventilation; […] with usual care; cited from earlier work
For C[C@@H]1C[C@H]2[C@@H]3CCC4=CC(=O)C=C[C@]4(C)[C@@]3(F)[C@@H](O)C[C@]2(C)[C@@]1(O)C(=O)CO [dexamethasone], the 28-day mortality is given as 29.0%.

Same assay, conditions: no respiratory support at randomization; […] with usual care; cited from earlier work
In the case of C[C@@H]1C[C@H]2[C@@H]3CCC4=CC(=O)C=C[C@]4(C)[C@@]3(F)[C@@H](O)C[C@]2(C)[C@@]1(O)C(=O)CO [dexamethasone], the 28-day mortality is listed as 17.0%.

Same assay, conditions: oxygen support without invasive mechanical ventilation; […] with usual care; cited from earlier work
For C[C@@H]1C[C@H]2[C@@H]3CCC4=CC(=O)C=C[C@]4(C)[C@@]3(F)[C@@H](O)C[C@]2(C)[C@@]1(O)C(=O)CO [dexamethasone], the 28-day mortality is listed as 21.5%.

Same assay, conditions: oxygen support without invasive mechanical ventilation; cited from earlier work
In the case of C[C@@H]1C[C@H]2[C@@H]3CCC4=CC(=O)C=C[C@]4(C)[C@@]3(F)[C@@H](O)C[C@]2(C)[C@@]1(O)C(=O)CO [dexamethasone], the “Reduction of 28-day mortality” value is given as 14%.

Same assay, conditions: patients on invasive mechanical ventilation; cited from earlier work
In the case of C[C@@H]1C[C@H]2[C@@H]3CCC4=CC(=O)C=C[C@]4(C)[C@@]3(F)[C@@H](O)C[C@]2(C)[C@@]1(O)C(=O)CO [dexamethasone], the “Reduction of 28-day mortality” value is given as 28.7%.

Target: T1, mMASP-2
Test: Enzymatic assay for mMASP-2 (Ki)
Type: biochemical
Conditions: not given
Remark: another data set of the same source
In the case of Cc1nc(N)ccc1CNC(=O)[C@@H](C)NC(=O)[C@H]1C[C@H](c2cccc(-c3ccccc3)c2)CN1 [Compound 1359], the Ki is reported as 10000 to 25000 nM. With Cc1nc(N)ccc1CNC(=O)[C@H](C)NC(=O)[C@H]1C[C@H](c2cccc(-c3ccccc3)c2)CN1 [Compound 1360] the Ki was < 500 nM. For Cc1nc(N)ccc1CNC(=O)[C@H](C)NC(=O)[C@H]1C[C@@H](c2ccccc2)CCN1CC(=O)O [Compound 1398], the Ki was < 500 nM. For Cc1nc(N)ccc1CNC(=O)[C@H](C)NC(=O)[C@H]1CC(Cc2ccc(F)cc2)(Cc2ccc(F)cc2)CN1 [Compound 1480], the Ki was < 500 nM.
